Laboratory results published in EPA's ToxRefDB 2.

How the values were obtained:
rat [1] = conditions: Combined chronic toxicity/carcinogenicity, wistar, Oral, Feed, dose end: 104 week, group: systemic
mouse [2] = conditions: Carcinogenicity, other, Oral, Feed, dose end: 92 week, group: systemic
rat [3] = conditions: Subchronic oral toxicity in rodents, fischer, Water, dose end: 13 week, group: systemic
rat [4] = conditions: Combined chronic toxicity/carcinogenicity; fischer; Oral; Water; dose end: 21 month; group: systemic; systemic / pathology microscopic / heart / thrombus + systemic / pathology microscopic / liver / degeneration + systemic / pathology …
rat [5] = conditions: Subchronic oral toxicity in rodents, fischer, Water, dose end: 13 week, group: systemic; remark: listed apart in the source
mouse [6] = conditions: Subchronic oral toxicity in rodents, b6c3f1, Feed, dose end: 6 week, group: systemic, systemic / in life observation / mortality / mortality
rat [7] = conditions: Developmental neurotoxicity study; Oral; Feed; dose end: 90 PND; group: cannot be grouped; systemic / organ weight / liver / relative to body weight + systemic / pathology microscopic / liver / vacuolization
mouse [8] = conditions: Carcinogenicity, b6c3f1, Oral, Feed, dose end: 80 week, group: systemic
rat [9] = conditions: Carcinogenicity, other, Oral, Feed, dose end: 80 week, group: systemic
rat [10] = conditions: Subchronic oral toxicity in rodents, fischer, Feed, dose end: 8 week, group: systemic
rat [11] = conditions: Carcinogenicity; fischer; Oral; Feed; dose end: 105 week; group: systemic; systemic / in life observation / clinical signs / convulsions + systemic / in life observation / clinical signs / nervousness + systemic / …
mouse [12] = conditions: Multigenerational reproductive toxicity study; other; Oral; Feed; dose end: 1 generation; group: reproductive; reproductive / offspring survival early / litter size / litter size
rat [13] = conditions: Subchronic oral toxicity in rodents, other, Feed, dose end: 6 week, group: systemic
[14] = systemic / pathology microscopic / liver / hypertrophy + systemic / pathology microscopic / thyroid gland / [other]
[15] = systemic / pathology microscopic / liver / hypertrophy + systemic / pathology microscopic / thyroid gland / [other] + systemic / in life …
[16] = systemic / pathology microscopic / liver / depletion glycogen
[17] = systemic / pathology microscopic / liver / depletion glycogen + systemic / pathology microscopic / lung / adenocarcinoma + systemic / …
[18] = systemic / clinical chemistry / creatinine / creatinine + systemic / clinical chemistry / thyroxine (t4) / thyroxine (t4), total + systemic…
[19] = systemic / in life observation / body weight / body weight + systemic / pathology microscopic / kidney / nephropathy + systemic / pathology …
[20] = systemic / in life observation / body weight / body weight gain + systemic / organ weight / kidney / relative to body weight + systemic / …
[21] = systemic / organ weight / liver / relative to body weight
[22] = systemic / in life observation / clinical signs / excitation + systemic / in life observation / clinical signs / tremors
[23] = systemic / in life observation / clinical signs / excitation + systemic / in life observation / clinical signs / tremors + systemic / in …
[24] = systemic / in life observation / body weight / body weight + systemic / in life observation / clinical signs / [other] + systemic / in life …
[25] = systemic / pathology microscopic / brain / necrosis + systemic / in life observation / body weight / body weight + systemic / in life …
[26] = systemic / in life observation / body weight / body weight
[27] = systemic / in life observation / body weight / body weight + systemic / in life observation / mortality / mortality

Question: For `CC1(C)[C@H](C(=O)OCc2cccc(Oc3ccccc3)c2)[C@@H]1C=C(Cl)Cl` [1RS cis-Permethrin], which LEL (rat [1]; [14]) is on record?
Answer: 50 mg/kg/day

Question: What about the LOAEL (rat [1]; [14]) of the same molecule?
Answer: 50 mg/kg/day

Question: What about the NEL (rat [1]; [15]) of the same molecule?
Answer: 10 mg/kg/day

Question: What about the NOAEL (rat [1]; [15]) of the same molecule?
Answer: 10 mg/kg/day

Question: And the LEL (mouse [2]; [16])?
Answer: 10 mg/kg/day

Question: And the NEL (mouse [2]; [16])?
Answer: < 10 mg/kg/day

Question: What about the LOAEL (mouse [2]; [17]) of the same molecule?
Answer: > 250 mg/kg/day

Question: What about the NOAEL (mouse [2]; [17]) of the same molecule?
Answer: ≥ 250 mg/kg/day

Question: How did the LEL (rat [3]; [18]) turn out when `COc1cc(-c2ccc(N)c(OC)c2)ccc1N.Cl.Cl` [3,3'-Dimethoxybenzidine dihydrochloride] was run?
Answer: 11 mg/kg/day

Question: What about the NEL (rat [3]; [18]) of the same molecule?
Answer: < 11 mg/kg/day

Question: What about the LOAEL (rat [3]; [19]) of the same molecule?
Answer: 109 mg/kg/day

Question: And the NOAEL (rat [3]; [19])?
Answer: 56 mg/kg/day

Question: And the LEL (rat [4])?
Answer: 6 mg/kg/day

Question: What about the LOAEL (rat [4]) of the same molecule?
Answer: 6 mg/kg/day

Question: And the NEL (rat [4])?
Answer: < 6 mg/kg/day

Question: What about the NOAEL (rat [4]) of the same molecule?
Answer: < 6 mg/kg/day

Question: What about the LOAEL (rat [5]; [20]) of the same molecule?
Answer: > 120 mg/kg/day

Question: What about the NOAEL (rat [5]; [20]) of the same molecule?
Answer: ≥ 120 mg/kg/day

Question: And the LEL (rat [5]; [21])?
Answer: 13 mg/kg/day

Question: And the NEL (rat [5]; [21])?
Answer: < 13 mg/kg/day

Question: Which results are given for `ClC1=C(Cl)[C@]2(Cl)[C@@H]3[C@@H]4C[C@@H]([C@H]5O[C@@H]45)[C@@H]3[C@@]1(Cl)C2(Cl)Cl` [Dieldrin]?
Answer: LEL (mouse [6]): 3 mg/kg/day; LOAEL (mouse [6]): > 6 mg/kg/day; NEL (mouse [6]): 1.5 mg/kg/day; NOAEL (mouse [6]): ≥ 6 mg/kg/day; LEL (rat [7]): 0.00035 mg/kg/day; LOAEL (rat [7]): > 0.00035 mg/kg/day; NEL (rat [7]): < 0.00035 mg/kg/day; NOAEL (rat [7]): ≥ 0.00035 mg/kg/day; LOAEL (mouse [8]; [22]): 0.375 mg/kg/day; NOAEL (mouse [8]; [22]): < 0.375 mg/kg/day; LEL (mouse [8]; [23]): 0.375 mg/kg/day; NEL (mouse [8]; [23]): < 0.375 mg/kg/day; LEL (rat [9]; [24]): 1.45 mg/kg/day; NEL (rat [9]; [24]): < 1.45 mg/kg/day; LOAEL (rat [9]; systemic / in life observation / clinical signs / convulsions): 3.25 mg/kg/day; NOAEL (rat [9]; systemic / in life observation / clinical signs / convulsions + systemic / in life observation / body weight / body weight + systemic / in …): 1.45 mg/kg/day; LOAEL (rat [10]; systemic / pathology microscopic / brain / necrosis): 5 mg/kg/day; LEL (rat [10]; systemic / pathology microscopic / brain / necrosis + systemic / in life observation / body weight / body weight): 5 mg/kg/day; NEL (rat [10]; [25]): 2.5 mg/kg/day; NOAEL (rat [10]; [25]): 2.5 mg/kg/day; LEL (rat [11]): 2.5 mg/kg/day; LOAEL (rat [11]): > 2.5 mg/kg/day; NEL (rat [11]): 0.5 mg/kg/day; NOAEL (rat [11]): ≥ 2.5 mg/kg/day; LEL (mouse [12]): 0.75 mg/kg/day; LOAEL (mouse [12]): > 0.75 mg/kg/day; NEL (mouse [12]): < 0.75 mg/kg/day; NOAEL (mouse [12]): ≥ 0.75 mg/kg/day; LEL (rat [13]; [26]): 2 mg/kg/day; NEL (rat [13]; [26]): < 2 mg/kg/day; LOAEL (rat [13]; [27]): > 16 mg/kg/day; NOAEL (rat [13]; [27]): ≥ 16 mg/kg/day
